# Test results published in ChEMBL document CHEMBL3856280, “Targeting the HSP60/10 chaperonin systems of Trypanosoma brucei as a strategy for treating African sleeping sickness” (Bioorg Med Chem Lett, 2016).
# Columns and labels:
# [1] = target: T1, HSP60/HSP10 (Homo sapiens, UniProt P10809); assay: Inhibition of human mitochondrial HSP60/HSP10-ATPase activity expressed in Escherichia coli DH5alpha/BL21 (DE3) assessed as inhibition of denatured MDH refolding preincubated for 10 mins followed by ATP addition measured after 40 to 60 mins by malachite green dye based fluorescence assay
# T1 sequence (P10809 whole entry): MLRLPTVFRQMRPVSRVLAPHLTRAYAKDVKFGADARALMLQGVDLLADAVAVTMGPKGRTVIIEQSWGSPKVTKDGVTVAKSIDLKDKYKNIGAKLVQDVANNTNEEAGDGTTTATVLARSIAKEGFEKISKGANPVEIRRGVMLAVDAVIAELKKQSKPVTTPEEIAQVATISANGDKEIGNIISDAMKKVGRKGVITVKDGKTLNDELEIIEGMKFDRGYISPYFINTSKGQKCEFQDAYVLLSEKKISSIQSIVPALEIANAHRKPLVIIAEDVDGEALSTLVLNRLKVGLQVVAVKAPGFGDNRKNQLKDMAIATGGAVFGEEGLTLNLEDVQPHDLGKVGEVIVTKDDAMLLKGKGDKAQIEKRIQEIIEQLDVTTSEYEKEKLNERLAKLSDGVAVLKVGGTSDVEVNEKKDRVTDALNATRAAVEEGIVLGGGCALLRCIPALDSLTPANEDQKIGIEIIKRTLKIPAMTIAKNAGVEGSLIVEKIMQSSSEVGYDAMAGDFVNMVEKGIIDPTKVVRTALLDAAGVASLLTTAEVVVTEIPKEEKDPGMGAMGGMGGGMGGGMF
# T1 sequence (P61604 whole entry, further chain): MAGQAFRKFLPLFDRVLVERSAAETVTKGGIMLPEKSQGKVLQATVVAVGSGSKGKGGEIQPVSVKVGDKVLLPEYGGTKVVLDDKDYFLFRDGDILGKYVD
# [2] = test system: Trypanosoma brucei brucei; assay: Antitrypanosomal activity against Trypanosoma brucei brucei Lister 427 VSG 221 [TetR T7RNAP] transgenic bloodstream forms assessed as reduction in cell viability after 48 hrs by alamar blue assay; format: functional; conditions: Lister 427 VSG 221, 48 h
# [3] = Inhibition of pig heart native MDH reporter reaction after 20 to 40 mins by fluorescence based assay; parameters: species or system Sus scrofa
# [4] = Cytotoxicity against HEK293 cells assessed as reduction in cell viability after 48 hrs by alamar blue assay; format: toxicity, cell-based; conditions: human
# [5] = target: T2, E. coli GroEL/ES (Escherichia coli, UniProt P0A6F5); assay: Inhibition of Escherichia coli GroEL/GroES-ATPase activity expressed in Escherichia coli DH5alpha/BL21 (DE3) assessed as inhibition of denatured MDH refolding preincubated for 10 mins followed by ATP addition measured after 20 to 40 mins by malachite green dye based fluorescence assay
# T2 sequence (P0A6F5 whole entry, looked up): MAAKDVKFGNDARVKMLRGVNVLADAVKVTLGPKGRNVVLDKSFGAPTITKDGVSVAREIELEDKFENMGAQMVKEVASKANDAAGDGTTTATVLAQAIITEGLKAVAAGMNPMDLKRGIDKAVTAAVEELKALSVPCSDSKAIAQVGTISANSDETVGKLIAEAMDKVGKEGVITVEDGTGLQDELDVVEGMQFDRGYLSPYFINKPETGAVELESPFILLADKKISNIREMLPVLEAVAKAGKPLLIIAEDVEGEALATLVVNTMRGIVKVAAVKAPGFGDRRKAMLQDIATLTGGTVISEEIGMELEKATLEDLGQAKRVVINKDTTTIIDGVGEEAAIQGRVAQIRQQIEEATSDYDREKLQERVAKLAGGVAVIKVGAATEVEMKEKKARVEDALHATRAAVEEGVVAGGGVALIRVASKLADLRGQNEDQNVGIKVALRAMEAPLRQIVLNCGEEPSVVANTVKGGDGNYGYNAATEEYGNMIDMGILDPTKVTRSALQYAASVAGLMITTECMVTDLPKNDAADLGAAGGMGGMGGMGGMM
# [6] = target: T1, HSP60/HSP10; assay: Inhibition of human mitochondrial HSP60/HSP10 expressed in Escherichia coli DH5alpha/BL21 (DE3) assessed as inhibition of denatured MDH refolding preincubated for 10 mins followed by ATP addition measured after 40 to 60 mins by fluorescence based assay
# [7] = target: T2, E. coli GroEL/ES; assay: Inhibition of Escherichia coli GroEL/GroES expressed in Escherichia coli DH5alpha/BL21 (DE3) assessed as inhibition of denatured MDH refolding preincubated for 10 mins followed by ATP addition measured after 20 to 40 mins by fluorescence based assay
# [8] = Cytotoxicity against human THLE3 cells assessed as reduction in cell viability after 48 hrs by alamar blue assay; format: toxicity, cell-based
SMILES,IC50 [1],EC50 [2],IC50 [3],EC50 at 48 h [4],IC50 [5],IC50 [6],IC50 [7],EC50 at 48 h [8]
O=C(O)c1cccc(S(=O)(=O)Nc2ccc(-c3nc4cc(NS(=O)(=O)c5cccc(C(=O)O)c5)ccc4o3)cc2)c1,> 250 µM,> 42 µM,41 µM,> 100 µM,> 250 µM,81 µM,61 µM,> 100 µM
O=C(O)c1ccccc1S(=O)(=O)Nc1ccc(-c2nc3cc(NS(=O)(=O)c4ccccc4C(=O)O)ccc3o2)cc1,> 250 µM,> 42 µM,> 63 µM,> 100 µM,> 250 µM,> 100 µM,> 100 µM,> 100 µM
COC(=O)c1ccc(S(=O)(=O)Nc2ccc(-c3nc4cc(NS(=O)(=O)c5ccc(C(=O)OC)cc5)ccc4o3)cc2)cc1,> 250 µM,23 µM,> 63 µM,> 100 µM,91 µM,87 µM,26 µM,> 100 µM
COC(=O)c1ccccc1S(=O)(=O)Nc1ccc(-c2nc3cc(NS(=O)(=O)c4ccccc4C(=O)OC)ccc3o2)cc1,> 250 µM,28 µM,> 63 µM,> 100 µM,53 µM,> 100 µM,36 µM,> 100 µM
O=C(O)c1ccc(S(=O)(=O)Nc2ccc(-c3nc4cc(NS(=O)(=O)c5ccc(C(=O)O)cc5)ccc4o3)cc2)cc1,> 250 µM,> 42 µM,> 63 µM,> 100 µM,> 250 µM,> 100 µM,83 µM,> 100 µM
NCCCC(N)(C(=O)O)C(F)F (configuration not stated) [EFLORNITHINE],> 250 µM,> 42 µM,> 63 µM,> 100 µM,> 250 µM,> 100 µM,> 100 µM,> 100 µM
CC1CS(=O)(=O)CCN1/N=C/c1ccc([N+](=O)[O-])o1 (configuration not stated) [NIFURTIMOX],> 250 µM,2.8 µM,> 63 µM,> 100 µM,> 250 µM,> 100 µM,> 100 µM,> 100 µM
N=C(N)c1ccc(OCCCCCOc2ccc(C(=N)N)cc2)cc1 [PENTAMIDINE],> 250 µM,< 0.019 µM,> 63 µM,> 100 µM,> 250 µM,> 100 µM,> 100 µM,19 µM
Cc1ccc(C(=O)Nc2ccc(S(=O)(=O)O)c3cc(S(=O)(=O)O)cc(S(=O)(=O)O)c23)cc1NC(=O)c1cccc(NC(=O)Nc2cccc(C(=O)Nc3cc(C(=O)Nc4ccc(S(=O)(=O)O)c5cc(S(=O)(=O)O)cc(S(=O)(=O)O)c45)ccc3C)c2)c1 [SURAMIN],> 250 µM,0.12 µM,> 63 µM,> 100 µM,> 250 µM,11 µM,7.9 µM,> 100 µM
